“Also recorded” adds a separate entry of the source. Where two headings read alike, the source gives them in different places.

Data set [1] deals with Sprague Dawley rats, latissimus dorsi muscle. Put plainly: Silicon wafer implant with exogenous ATP or apyrase, histology at 24 hours. The format is in vivo, rat. The conditions noted are these: for inflammatory infiltrate in the implant region: implant plus exogenous agent. The text has this: FIG. 16. A composite panel of microscopy images taken from H&E stained sections of muscle tissue adjacent to the silicon implant. […] The other images in the panel are high magnification showing areas of high inflammation and necrosis bottom two panels and relatively low inflammation away from the implant site, upper right. The top right set of images is from the tissue adjacent to the implant that had also been treated with exogenous ATP. […] And that by modulating the ATP signal we can potentially modulate the initial inflammatory reaction.
15 male Sprague Dawley rats underwent unilateral implantation of silicon wafer implants. Three animals received implants only, three received implants plus exogenous ATP, three received implants plus exogenous apyrase, an enzyme that scavenges ATP, three underwent surgery alone without an implant, and three received a percutaneous injection of exogenous ATP into the latissimus dorsi muscle. The implants were harvested after 24 hours to evaluate the extent of inflammatory infiltrate and preservation of muscle.

A further data set relates to HMVECs. The data set can be described thus: ATP release from endothelial cells. The format is cell-based, human. As to the method: FIG. 15. ATP is released from endothelial cells in response to low Ca^2+ and the inflammatory cytokine IL-6. HMVECs were treated for 5 hours with either nothing or IL-6 (0.01 ng/mL). After the 5 hr incubation, HBSS (w/Ca^2+ and Mg^2+)—25 mM HEPES was added to one set of controls (“Control”) and the IL-6 treated cells for 5 min. To the other set of control wells, HBSS (w/o Ca^2+ and Mg^2+)—25 mM HEPES was added as a positive control for Cx43 hemichannel-mediated ATP release (“Low Ca^2+”). The error bars represent the standard error for replicates within the same experiment.
The possibility that Cx43 acts as a mediator of inflammation through hemichannel mediated release of ATP was further examined Studies on ATP release in the HeLa cell models, as well as primary human microvascular endothelial cells (HMVECs), were performed. […] However, the inventors also observed that, in preliminary experiments, ATP released in response to low Ca^2+ was not inhibited by treatment with mefloquine, a commonly used connexin channel blocker. Endothelial cells may also release ATP through vesicular exocytotic mechanisms in a Ca^2+ dependent manner (Bodin and Burnstock, 2001; McDonald et al., 2010). Pannexin channels, which can also mediate ATP release, are similarly sensitive to mefloquine (Lohman et al., 2012; Bodin et al, 2001).

The test system of data set [2] is neonatal rat cardiac fibroblast cells. The data set can be described thus: Western blot of collagen type I in conditioned media and cell lysates of peptide-treated neonatal cardiac fibroblasts. The format is cell-based. The text has this:
Isolation and treatment of Neonatal Cardiac Fibroblasts with Cx43 based peptides (peptides used included ACT1, JM1, JM2, Antenapedia [ANT], reverse ACT1 [Rev], poly Arginine [poly r]). Neonatal cardiac fibroblasts (NHFs) were isolated from 3-4 day old rat hearts by collagenase digestion (100 U/mL) and differential attachment as previously described (Borg et al., 1984). All cells were maintained in Dulbecco's Modified Eagle Medium (DMEM) supplemented with 10% Fetal Bovine Serum and 100 U/mL penicillin G and 100 μg/mL streptomycin and used prior to passage four. For experiments, 40,000 NHFs were plated into the wells of a 24-well tissue culture plate and grown for 24-48 hours. On the day of treatment, media was removed from each well and replaced with fresh media containing 50 μg/mL L-ascorbic acid-2-phosphate; Sigma Chemical Co., St. Louis, Mo.). The appropriate volume of each peptide (resuspended in sterile, deionized 18 MΩ resistivity water) was added to achieve the desired final concentration (30, 90, 180 μM peptide concentrations were tested). Culture plates were incubated overnight in a 37° C. incubator with 5% CO2.
Conditioned culture media was collected from each well and stored at −20° C. for analysis of soluble collagen. Cellular protein, including insoluble collagen and collagen still within the NHFs, were isolated by adding 100-200 μL of cell lysis buffer (0.01 M Tris, pH 7.4, 0.001 M Sodium Orthovanadate, 1% sodium dodecylsulfate [SDS]) to each well and incubating 10 minutes at room temperature. Prior to addition, cell lysis buffer was warmed to facilitate solubilzation of SDS and 100 μL of Halt protease inhibitor (Pierce Biotechnology, Rockford, Ill.) was added per 10 mL buffer to be used. […] Protein concentrations of cell lysates were determined using a Micro BCA assay (Pierce). […] The presence of collagen was determined by probing the membranes with a rabbit anti-mouse collagen type I antibody (MD Biosciences) at 1:20,000 dilution in blocking buffer (5% milk in Tris-buffered saline) followed by a goat anti-rabbit IgG horseradish peroxidase conjugated antibody at 1:100,000 (Southern Biotech Associates) and detection with Pierce SuperSignal Femto West detection reagent (Pierce).
To assess the activity of JM1 and JM2 peptides with respect to collagen production and their potential in mediating wound healing, cardiac fibroblasts were treated with these two peptides and their effectiveness compared to that for the previous described Cx43 peptide ACT1. NHFs were treated with various concentrations of JM1, JM2, ACT1, and ANT (Antenapedia) peptides, vehicle (water) or left untreated and the production of collagen both in the culture media and cell-associated collagen assessed by western blotting. […]

The target in a further data set is T1, Cx43 hemichannel (Homo sapiens, UniProt P17302).
T1 construct: expressed in transfected cells
T1 sequence (P17302 whole entry): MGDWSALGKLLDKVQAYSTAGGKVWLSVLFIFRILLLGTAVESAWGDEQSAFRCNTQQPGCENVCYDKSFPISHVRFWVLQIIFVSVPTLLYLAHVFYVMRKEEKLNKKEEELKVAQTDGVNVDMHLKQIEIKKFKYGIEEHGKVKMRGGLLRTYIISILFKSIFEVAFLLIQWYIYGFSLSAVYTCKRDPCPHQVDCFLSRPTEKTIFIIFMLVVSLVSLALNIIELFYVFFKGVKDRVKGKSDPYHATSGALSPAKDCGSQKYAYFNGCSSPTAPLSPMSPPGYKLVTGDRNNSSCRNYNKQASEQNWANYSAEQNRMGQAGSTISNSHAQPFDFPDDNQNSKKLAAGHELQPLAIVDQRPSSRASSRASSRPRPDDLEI
Particulars: Rhett et al., 2011; cited from earlier work.

The next data set deals with NIH-3T3 cells. The conditions noted are these: 30 μM, cited from earlier work.
The subject of a further data set is SD rat cornea. The conditions noted are these: cited from earlier work.
Data set [3] concerns myocytes from neonatal rats. The conditions noted are these: 30 μM, 5 days; cited from earlier work.
For the next data set, the system named is ARPE19 cell. The conditions noted are these: cited from earlier work.
Data set [4] relates to U87 MG glioblastoma cells. The conditions noted are these: cited from earlier work.
Data set [5] has as its system Sprague-Dawley rats with silicone disks. Particulars: cited from earlier work.
Data set [6] deals with implants in skeletal muscle. Put plainly: Inflammatory infiltrate at implants, myeloperoxidase stain. The conditions noted are these: 24 hour time point. It counts as in vivo. The text has this:
In attempting to quantify the neutrophil infiltrate using a myeloperoxidase stain, the inventors observed that some of the cells stained darker than others. Upon further investigation, these cells were not neutrophils as but rather were macrophages.

The subject of the next data set is adult rat brain injury. Particulars: 100 μM in 2% collagen vehicle; cited from earlier work.
A further data set relates to C6 glioma cell line. Particulars: cited from earlier work.
The next data set relates to CD1 mice, LV cryo-injury. The conditions noted are these: cited from earlier work.
For data set [7], the system named is neonatal mouse skin wound. The conditions noted are these: cited from earlier work.
The subject of data set [8] is C57BL/6 mouse, laser-induced CNV. Particulars: cited from earlier work.
For data set [9] the following is noted: cited from earlier work.
Another data set relates to adult mouse skin wound. The conditions noted are these: cited from earlier work.
The subject of a further data set is rat skin wound. The conditions noted are these: cited from earlier work.

Take `Nc1ncnc2c1ncn2[C@@H]1O[C@H](COP(=O)(O)OP(=O)(O)OP(=O)(O)O)[C@@H](O)[C@H]1O` [ATP]: the “inflammatory infiltrate in the implant region” value in [1] is on record as “profound increase in inflammatory infiltrate”. Also, the “inflammatory infiltrate in skeletal muscle” value in data set [1] (percutaneous injection, no implant) was “more inflammatory infiltrate than the surgery alone; also recorded: causes significant inflammation”.

As to `OC(c1cc(C(F)(F)F)nc2c(C(F)(F)F)cccc12)C1CCCCN1` (stereo not shown) [mefloquine], the “ATP released in response to low Ca2+” value in the data set with HMVECs (treatment with blocker, preliminary experiments) is listed as “not inhibited”.

Turning to IL-6: the inflammatory cytokine IL-6, in the data set on HMVECs (IL-6 0.01 ng/mL, 5 hours), the ATP release entry is listed as “increased ATP release”.

As to “RQPKIWFPNRRKPWKKRPRPDDLEI [ACT1, Cx43 carboxyl-terminal peptide incorporating aas 373 to 382 of Cx43, U.S. Pat. No. 7,786,074]”, the “secretion/production of mature, fully processed type I collagen (conditioned media)” value in [2] (30, 90, 180 μM, overnight) is listed as “decreased levels of fully processed collagen I a1 chains; also recorded: dose-dependent reduction”. For the same compound, in data set [2] (ACT1, highest doses of JM1 and JM2), the “higher molecular weight collagen species in cell lysate” value was “absence of higher molecular weight collagen species”. Besides, the “mature / processed type I collagen in NHF cell lysate” value in [2] (cell lysates, JM1, JM2 at maximum dose tested) is “slight decreases in processed collagen I a1 chains”. Further, the “collagen synthesis, processing and secretion from fibroblasts” value in [2] (cultured fibroblasts, FIGS. 1 and 2) is “reduced collagen processing and secretion”. Moreover, the Cx43 hemichannel activity result with Cx43 hemichannel was “inhibits Cx43 hemichannel activity”. Further, the “repopulation of scratch injury” value in the data set with NIH-3T3 cells (24 hours) is “few cells repopulating the area”. In addition, in the data set with NIH-3T3 cells, the “proliferation of the cells” value is “reduced proliferation”. The corneal re-epithelialization entry in the data set on SD rat cornea (24 hrs) is recorded as “re-epithelializing much faster than control corneas”. Further, the corneal re-epithelialization result with SD rat cornea (72 hrs) was “significantly greater re-epithelialization”. In addition, the “corneal closure and regeneration” value in the data set with SD rat cornea (rat, in vivo) is “faster closure and more complete corneal regeneration”. The “extent of Cx43 gap junction formation between myocytes” value in data set [3] is on record as “greatly increased”. Also, in the data set with ARPE19 cell (pre-treatment with peptide), the “VEGF-dependent drop in TER” value is listed as “ameliorated the drop in TER; also recorded: blocked”. Also, the “motility across a porous membrane” value in data set [4] (Boyden chamber) was “significantly decreased”. Further, the aggregation result in [4] is listed as “higher degree of aggregation”. The neutrophil infiltration result in data set [5] (capsulectomies days 1-28) is listed as “attenuating neutrophil infiltration”. For the same compound, in [5] (rat, in vivo), the “presence of contractile myofibroblasts” value was “reducing the continued presence of contractile myofibroblasts”, the “type I collagen deposition around the implant” value was “reducing type I collagen deposition around the implant” and the “vascularity of the capsule tissue” value is “increasing vascularity of the capsule tissue”. Besides, the primary inflammatory infiltrate entry in data set [6] was “macrophages”. Besides, in the data set on adult rat brain injury, the “NeuN immunolabeled neurons proximal to the HFM” value is reported as “higher numbers” and the “density of GFAP-positive astrocytes adjacent the HFM” value is on record as “much lower density”. Besides, in the data set on C6 glioma cell line (C6, Boyden chamber), the “motility across a porous membrane” value is recorded as “significantly decreased”. In addition, in the data set with C6 glioma cell line (C6), the adhesive properties result is “did not change” and the cell morphology entry is given as “altered morphology”. The “LV diastolic and systolic function” value in the data set on CD1 mice, LV cryo-injury (8 week time course) is “significant improvement”. Also, the scar uniformity entry with CD1 mice, LV cryo-injury (mouse, in vivo) is “significantly increased scar uniformity”. Besides, the “frequency and severity of arrhythmias” value in the data set with CD1 mice, LV cryo-injury (pacing and S1-S2 protocols) is on record as “dramatically reduced”. Moreover, the “wound closure, inflammation, swelling” value in data set [7] (60 μM in 20% pluronic gel, 48 hours) is “significantly more closed, less inflamed, less swollen”. Also, in [7] (60 μM, 7 days), the “wound appearance / scarring” value is “smoother and less scarred appearance”. The “CNV lesion size / injury spread” value in [8] (relative to PBS controls) is given as “significantly reduced; also recorded: reduced CNV injury spread”. Further, the “retinal function (ERG)” value in data set [8] (relative to controls) is reported as “improved retinal function”. Also, in [9] (100 uM, corneal application, 20 and 40 minutes), the “peptide in aqueous humor (anterior chamber)” value is on record as “detectable level”. Further, the “peptide in vitreous humor (posterior chamber), Western blotting” value in data set [9] (20 and 40 minutes) is listed as “Lower levels of peptide could also be detected”. Moreover, in [9] (corneal application), the “peptide in retinal pigment epithelial layer” value is listed as “detectable in the retinal pigment epithelial layer”. The “closure, inflammation, healing and scarring of excisional injuries” value in the data set on adult mouse skin wound (100 μM in 30% pluronic gel, 10-14 day time course) was “closed faster, were less inflamed in appearance, healed faster and scarred less”. Besides, the scarring/overall appearance result with adult mouse skin wound (7 and 10 days post-wounding) is on record as “significantly improved”. Besides, in the data set with adult mouse skin wound (24 hr and 4 days post-wounding), the wound redness result is recorded as “significantly decreased”. Moreover, the wound size entry in the data set on adult mouse skin wound (24 hr, 4, 7 and 10 days) is “significantly smaller in size”. Besides, in the data set with rat skin wound (150 μM peptide, 30 days), the “scar area and scar tissue volume / scar size” value is reported as “significantly (p<0.05) smaller”. Moreover, the wound closure rates result in the data set with rat skin wound (versus the other 4 wounds) is “significantly faster closure rates”.

VEGF: the TER entry in the data set with ARPE19 cell (VEGF alone, by 4 hours post-application) is “significantly (p<0.05) reduces TER; also recorded: rapid deterioration”.

apyrase: the “inflammatory infiltrate in the implant region” value in data set [1] is “significantly reduced the inflammatory infiltrate; also recorded: marked decrease in inflammatory infiltrate”.

Source of the values: US9345744B2, “Peptide-based collagen modulators for wound healing and tissue repair” (MUSC FOUNDATION FOR RESEARCH DEVELOPMENT, priority 2012, dated 2016).
